# US3954780A, “Propionic acid derivatives” (Innothera, priority 1970, dated 1976)
# Counter-ions that a name gives are not always drawn.
# Tests used:
# isolated rat duodenum = test: Spasmolytic activity of papaverinic type, barium chloride contracture; conditions: Tyrode 38°; for EC50: read-out: Spasmolytic activity Papaverinic type DE 50 (converted)
# Protocol: a. To show activity of the papaverinic type, the contracturant used is barium chloride acting on the isolated rat duodenum.
# The average activity of the substances studied has been effected by determining graphically their DE 30 and DE 50 these being expressed in μg for 20 ml of bath.
# [1] = test system: isolated ileum of the guinea-pig; test: Spasmolytic activity of atropinic type, acetylcholine chloride contracture; conditions: Tyrode 33°; for EC50: Cavia porcellus, read-out: Spasmolytic activity Atropinic type DE 50 (converted)
# Source text: b. To show activity of atropinic type the contracturant used is acetylcholine chloride acting on the isolated ileum of the guinea-pig. […]
structure (smiles),measurement,setting,value
O=C(OCCN1CCCCCC1)C(Cc1ccccc1)Cc1csc2ccccc12 (centres unmarked) [Compound 28],Spasmolytic activity Papaverinic type DE 30,isolated rat duodenum,6.5 μg for 20 ml of bath
same,EC50,isolated rat duodenum,0.7 µg/mL
same,EC50,[1],250 µg/mL
same,Spasmolytic activity Atropinic type DE 30,[1],750 μg/20 ml of bath
C=CCC(Cc1csc2ccccc12)C(=O)OCCN1CCCCC1 (centres unmarked) [Compound 3],Spasmolytic activity Papaverinic type DE 30,isolated rat duodenum,18.0 μg for 20 ml of bath
same,EC50,isolated rat duodenum,2 µg/mL
C=CCC(Cc1csc2ccccc12)C(=O)OCCN(CC)CC (centres unmarked) [Compound 1],Spasmolytic activity Papaverinic type DE 30,isolated rat duodenum,3.7 μg for 20 ml of bath
same,EC50,isolated rat duodenum,0.125 µg/mL
C=CCC(Cc1csc2ccccc12)C(=O)OCCCN1CCCC1 (centres unmarked) [Compound 8],Spasmolytic activity Papaverinic type DE 30,isolated rat duodenum,42.0 μg for 20 ml of bath
same,EC50,isolated rat duodenum,4 µg/mL
same,EC50,[1],4.5 µg/mL
same,Spasmolytic activity Atropinic type DE 30,[1],55 μg/20 ml of bath
CCN(CC)CCCOC(=O)C(Cc1ccccc1)Cc1csc2ccccc12 (centres unmarked) [Compound 30],Spasmolytic activity Papaverinic type DE 30,isolated rat duodenum,6.0 μg for 20 ml of bath
same,EC50,isolated rat duodenum,0.65 µg/mL
O=C(OCCCN1CCCCCC1)C(Cc1csc2ccccc12)CC1CCCO1 (centres unmarked) [Compound 56],Spasmolytic activity Papaverinic type DE 30,isolated rat duodenum,10.0 μg for 20 ml of bath
same,EC50,isolated rat duodenum,0.8 µg/mL
CN(C)CCCOC(=O)C(Cc1ccccc1)Cc1csc2ccccc12 (centres unmarked) [Compound 29],Spasmolytic activity Papaverinic type DE 30,isolated rat duodenum,4.0 μg for 20 ml of bath
same,EC50,isolated rat duodenum,0.425 µg/mL
same,EC50,[1],5 µg/mL
same,Spasmolytic activity Atropinic type DE 30,[1],45 μg/20 ml of bath
C=CCC(Cc1csc2ccccc12)C(=O)OCCCN1CCCCCC1 (centres unmarked) [Compound 10],Spasmolytic activity Papaverinic type DE 30,isolated rat duodenum,7.2 μg for 20 ml of bath
same,EC50,isolated rat duodenum,0.65 µg/mL
CN(C)CCOC(=O)C(Cc1csc2ccccc12)c1ccccc1 (centres unmarked) [Compound 12],Spasmolytic activity Papaverinic type DE 30,isolated rat duodenum,24.0 μg for 20 ml of bath
same,EC50,isolated rat duodenum,2.5 µg/mL
same,EC50,[1],5 µg/mL
same,Spasmolytic activity Atropinic type DE 30,[1],50 μg/20 ml of bath
CC(CN1CCCCC1)OC(=O)C(Cc1csc2ccccc12)c1ccccc1 (centres unmarked) [Compound 23],Spasmolytic activity Papaverinic type DE 30,isolated rat duodenum,3.1 μg for 20 ml of bath
same,EC50,isolated rat duodenum,0.35 µg/mL
same,EC50,[1],7 µg/mL
same,Spasmolytic activity Atropinic type DE 30,[1],50 μg/20 ml of bath
"CCN(CC)CCOC(=O)C(Cc1csc2ccccc12)c1ccccc1 (stereo not drawn) [Compound 13, N,N-diethylamino ethyl ester of α-phenyl-β-[(benzo(b)thienyl-3]propionic acid and its oxalate]",Spasmolytic activity Papaverinic type DE 30,isolated rat duodenum,13.0 μg for 20 ml of bath
same,EC50,isolated rat duodenum,2.25 µg/mL
same,EC50,[1],2.1 µg/mL
same,Spasmolytic activity Atropinic type DE 30,[1],30 μg/20 ml of bath
CN(C)CCCOC(=O)C(Cc1csc2ccccc12)CC1CCCO1 (centres unmarked) [Compound 52],Spasmolytic activity Papaverinic type DE 30,isolated rat duodenum,8.0 μg for 20 ml of bath
same,EC50,isolated rat duodenum,0.7 µg/mL
O=C(OCCN1CCCC1)C(Cc1csc2ccccc12)c1ccccc1 (centres unmarked) [Compound 14],Spasmolytic activity Papaverinic type DE 30,isolated rat duodenum,18.0 μg for 20 ml of bath
same,EC50,isolated rat duodenum,1.75 µg/mL
same,EC50,[1],7 µg/mL
same,Spasmolytic activity Atropinic type DE 30,[1],90 μg/20 ml of bath
O=C(OCCCN1CCCCCC1)C(Cc1ccccc1)Cc1csc2ccccc12 (centres unmarked) [Compound 33],Spasmolytic activity Papaverinic type DE 30,isolated rat duodenum,4.0 μg for 20 ml of bath
same,EC50,isolated rat duodenum,0.425 µg/mL
O=C(OCCCN1CCCCCC1)C(Cc1csc2ccccc12)c1ccccc1 (centres unmarked) [Compound 22],Spasmolytic activity Papaverinic type DE 30,isolated rat duodenum,7.0 μg for 20 ml of bath
same,EC50,isolated rat duodenum,0.8 µg/mL
O=C(OCCCN1CCCCC1)C(Cc1ccccc1)Cc1csc2ccccc12 (centres unmarked) [Compound 32],Spasmolytic activity Papaverinic type DE 30,isolated rat duodenum,4.5 μg for 20 ml of bath
same,EC50,isolated rat duodenum,0.475 µg/mL
CN(C)CCCOC(=O)C(Cc1cccs1)Cc1csc2ccccc12 (centres unmarked) [Compound 41],Spasmolytic activity Papaverinic type DE 30,isolated rat duodenum,4.3 μg for 20 ml of bath
same,EC50,isolated rat duodenum,0.525 µg/mL
same,EC50,[1],2.3 µg/mL
same,Spasmolytic activity Atropinic type DE 30,[1],24 μg/20 ml of bath
O=C(OCCN1CCCCC1)C(Cc1csc2ccccc12)c1ccccc1 (centres unmarked) [Compound 15],Spasmolytic activity Papaverinic type DE 30,isolated rat duodenum,45.0 μg for 20 ml of bath
same,EC50,isolated rat duodenum,3.5 µg/mL
same,EC50,[1],2.25 µg/mL
same,Spasmolytic activity Atropinic type DE 30,[1],26 μg/20 ml of bath
O=C(OCCN1CCCCC1)C(Cc1ccccc1)Cc1csc2ccccc12 (centres unmarked) [Compound 27],Spasmolytic activity Papaverinic type DE 30,isolated rat duodenum,6.0 μg for 20 ml of bath
same,EC50,isolated rat duodenum,0.6 µg/mL
"CN1C2CCC1CC(OC(=O)C(CO)c1ccccc1)C2 (centres unmarked) [atropine sulphate, reference compound]",EC50,[1],≤ 0.005 µg/mL
O=C(OCCN1CCCC1)C(Cc1ccccc1)Cc1csc2ccccc12 (centres unmarked) [Compound 26],Spasmolytic activity Papaverinic type DE 30,isolated rat duodenum,5.5 μg for 20 ml of bath
same,EC50,isolated rat duodenum,0.6 µg/mL
same,EC50,[1],7 µg/mL
same,Spasmolytic activity Atropinic type DE 30,[1],50 μg/20 ml of bath
CN(C)CCOC(=O)C(Cc1ccccc1)Cc1csc2ccccc12 (centres unmarked) [Compound 24],Spasmolytic activity Papaverinic type DE 30,isolated rat duodenum,10.0 μg for 20 ml of bath
same,EC50,isolated rat duodenum,1.25 µg/mL
same,EC50,[1],10 µg/mL
same,Spasmolytic activity Atropinic type DE 30,[1],90 μg/20 ml of bath
CCN(CC)CCOC(=O)C(Cc1ccccc1)Cc1csc2ccccc12 (centres unmarked) [Compound 25],Spasmolytic activity Papaverinic type DE 30,isolated rat duodenum,9.0 μg for 20 ml of bath
same,EC50,isolated rat duodenum,0.9 µg/mL
same,EC50,[1],6 µg/mL
same,Spasmolytic activity Atropinic type DE 30,[1],60 μg/20 ml of bath
CCN(CC)CCOC(=O)C(Cc1csc2ccccc12)CC1CCCO1 (centres unmarked) [Compound 48],Spasmolytic activity Papaverinic type DE 30,isolated rat duodenum,6.0 μg for 20 ml of bath
same,EC50,isolated rat duodenum,1.25 µg/mL
same,EC50,[1],0.9 µg/mL
same,Spasmolytic activity Atropinic type DE 30,[1],10 μg/20 ml of bath
C=CCC(Cc1csc2ccccc12)C(=O)OCCN1CCCC1 (centres unmarked) [Compound 2],Spasmolytic activity Papaverinic type DE 30,isolated rat duodenum,12.0 μg for 20 ml of bath
same,EC50,isolated rat duodenum,1.15 µg/mL
CN(C)CCCOC(=O)C(Cc1csc2ccccc12)c1ccccc1 (centres unmarked) [Compound 18],Spasmolytic activity Papaverinic type DE 30,isolated rat duodenum,8.0 μg for 20 ml of bath
same,EC50,isolated rat duodenum,1 µg/mL
same,EC50,[1],1.75 µg/mL
same,Spasmolytic activity Atropinic type DE 30,[1],22 μg/20 ml of bath
CC(CN1CCCC1)OC(=O)C(Cc1ccccc1)Cc1csc2ccccc12 (centres unmarked) [Compound 34],Spasmolytic activity Papaverinic type DE 30,isolated rat duodenum,8.0 μg for 20 ml of bath
same,EC50,isolated rat duodenum,0.8 µg/mL
O=C(OCCCN1CCCCCC1)C(Cc1cccs1)Cc1csc2ccccc12 (centres unmarked) [Compound 45],Spasmolytic activity Papaverinic type DE 30,isolated rat duodenum,14.0 μg for 20 ml of bath
same,EC50,isolated rat duodenum,1.35 µg/mL
CCN(CC)CCOC(=O)C(Cc1cccs1)Cc1csc2ccccc12 (centres unmarked) [Compound 36],Spasmolytic activity Papaverinic type DE 30,isolated rat duodenum,8.5 μg for 20 ml of bath
same,EC50,isolated rat duodenum,1 µg/mL
same,EC50,[1],1.4 µg/mL
same,Spasmolytic activity Atropinic type DE 30,[1],14 μg/20 ml of bath
O=C(OCCCN1CCCCC1)C(Cc1cccs1)Cc1csc2ccccc12 (centres unmarked) [Compound 44],Spasmolytic activity Papaverinic type DE 30,isolated rat duodenum,5.5 μg for 20 ml of bath
same,EC50,isolated rat duodenum,0.4 µg/mL
same,EC50,[1],3.5 µg/mL
same,Spasmolytic activity Atropinic type DE 30,[1],30 μg/20 ml of bath
C=CCC(Cc1csc2ccccc12)C(=O)OCCCN1CCCCC1 (centres unmarked) [Compound 9],Spasmolytic activity Papaverinic type DE 30,isolated rat duodenum,13.0 μg for 20 ml of bath
same,EC50,isolated rat duodenum,1 µg/mL
O=C(OCCCN1CCCC1)C(Cc1ccccc1)Cc1csc2ccccc12 (centres unmarked) [Compound 31],Spasmolytic activity Papaverinic type DE 30,isolated rat duodenum,16.0 μg for 20 ml of bath
same,EC50,isolated rat duodenum,1.4 µg/mL
same,EC50,[1],3.25 µg/mL
same,Spasmolytic activity Atropinic type DE 30,[1],40 μg/20 ml of bath
CN(C)CCOC(=O)C(Cc1csc2ccccc12)CC1CCCO1 (centres unmarked) [Compound 47],Spasmolytic activity Papaverinic type DE 30,isolated rat duodenum,9.0 μg for 20 ml of bath
same,EC50,isolated rat duodenum,0.75 µg/mL
O=C(OCCN1CCOCC1)C(Cc1csc2ccccc12)c1ccccc1 (centres unmarked) [Compound 16],Spasmolytic activity Papaverinic type DE 30,isolated rat duodenum,38.0 μg for 20 ml of bath
same,EC50,isolated rat duodenum,5.5 µg/mL
same,EC50,[1],22.5 µg/mL
same,Spasmolytic activity Atropinic type DE 30,[1],225 μg/20 ml of bath
O=C(OCCN1CCCCC1)C(Cc1cccs1)Cc1csc2ccccc12 (centres unmarked) [Compound 38],Spasmolytic activity Papaverinic type DE 30,isolated rat duodenum,6.0 μg for 20 ml of bath
same,EC50,isolated rat duodenum,0.8 µg/mL
same,EC50,[1],10 µg/mL
same,Spasmolytic activity Atropinic type DE 30,[1],95 μg/20 ml of bath
O=C(OCCN1CCOCC1)C(Cc1cccs1)Cc1csc2ccccc12 (centres unmarked) [Compound 39],Spasmolytic activity Papaverinic type DE 30,isolated rat duodenum,43.0 μg for 20 ml of bath
same,EC50,isolated rat duodenum,4 µg/mL
CC(CN1CCCC1)OC(=O)C(Cc1cccs1)Cc1csc2ccccc12 (centres unmarked) [Compound 46],Spasmolytic activity Papaverinic type DE 30,isolated rat duodenum,2.5 μg for 20 ml of bath
same,EC50,isolated rat duodenum,0.5 µg/mL
same,EC50,[1],0.9 µg/mL
same,Spasmolytic activity Atropinic type DE 30,[1],6.5 μg/20 ml of bath
O=C(OCCCN1CCCC1)C(Cc1csc2ccccc12)c1ccccc1 (centres unmarked) [Compound 20],Spasmolytic activity Papaverinic type DE 30,isolated rat duodenum,8.0 μg for 20 ml of bath
same,EC50,isolated rat duodenum,0.95 µg/mL
same,EC50,[1],2.75 µg/mL
same,Spasmolytic activity Atropinic type DE 30,[1],25 μg/20 ml of bath
CCN(CC)CCCOC(=O)C(Cc1csc2ccccc12)c1ccccc1 (centres unmarked) [Compound 19],Spasmolytic activity Papaverinic type DE 30,isolated rat duodenum,11.5 μg for 20 ml of bath
same,EC50,isolated rat duodenum,1.25 µg/mL
